Read-outs that look alike come from different tables or passages of the source.
Tests used:
[1] = Pharmacokinetics in CD-1 mice; type: in vivo; settings: male, CD-1, mouse, plasma, ip, 50 mg/kg, 50 mg/kg i.p., read-out: terminal half-lives (t1/2)
Procedure: (§1) Pharmacokinetic studies were performed in male CD-1 (50 mg/kg i.p. or orally (p.o.)) or female nude mice (50 mg/kg i.v. or i.p.), male Sprague-Dawley rats (1, 5, 20 and 50 mg/kg i.v. and 100 mg/kg, p.o.), beagle dogs (20 mg/kg, i.v.) and cynomologus monkeys (20 mg/kg i.v.). Plasma TH302 concentrations were analyzed using a LC/MS method and the pharmacokinetic parameters computed using a noncompartmental method. Interspecies scaling was performed according to standard methods.

[2] = GLP multiple-dose toxicity study in rats; type: in vivo
Procedure: Each rat received a 30 minute infusion once a week for three weeks (Q7D×3).

[3] = tested on: IGROV1 human ovarian cancer cells; assay: IGROV1 ovarian cancer xenograft; type: in vivo; settings: 75 mg/kg i.v. Q7D×2
Procedure: Forty nude mice were subcutaneously implanted with IGROV1 human ovarian cancer cells (5×10^6 cells/mouse). The tumor volumes were measured twice weekly starting on day 7. On day 8, tumor volumes reached about 97.7±3.9 mm^3. The mice were randomized in 3 treatment groups that were administered the following: CDDP (4 mg/kg, ip, Q7D×2), CDDP (6 mg/kg, i.p. Q7D×2), and TH302 (75 mg/kg, i.v., Q7D×2). A control group of mice were administered saline. […] Forty five days after the first administration of TH302, tumor growth inhibition was 66%. The tumor growth delay (to 300 mm^3) was 19 days.

[4] = Pharmacokinetics in Sprague-Dawley rats (single dose i.v. and p.o.); type: in vivo, male Sprague-Dawley rats; settings: male, Sprague-Dawley, rat, rats; for clearance: read-out: CL (converted); for Vd: read-out: Vss; for AUC(0-t): read-out: AUC(0-t); for Cmax: read-out: Cmax; for MRT: read-out: MRT
Procedure: as §1
TH302 was dissolved in 50% PEG400/Saline to obtain a final concentration of 25 mg/mL, and then was further diluted to yield 25, 10, 2.5 and 0.5 mg/mL formulations of TH302 (pH The formulations were prepared just before dosing. The concentration of TH302 in dosing solution was confirmed by HPLC-UV. Male Sprague Dawley rats (body weight: 200 g to 230 g) were used in this study. Before the pharmacokinetic studies, animals were randomly assigned to four treatment groups cannulated in the carotid artery for serial blood sampling. All rats were administered a single intravenous bolus dose over one minute via the tail vein. The concentrations of TH302 in plasma were determined using a high performance liquid chromatography/mass spectrometry (HPLC/MS/MS) method. […]

[5] = in vivo, iv, 1 mg/kg, 1 mg/kg i.v. bolus, MEAN
[6] = in vivo, iv, 5 mg/kg, 5 mg/kg i.v. bolus, MEAN
[7] = in vivo, iv, 20 mg/kg, 20 mg/kg i.v. bolus, MEAN
[8] = in vivo, iv, 20 mg/kg, 20 mg/kg i.v. bolus, individual animals
[9] = in vivo, iv, 50 mg/kg, 50 mg/kg i.v. bolus, MEAN
[10] = plasma, iv, 1 mg/kg, 1 mg/kg i.v. bolus, MEAN
[11] = plasma, iv, 1 mg/kg, 1 mg/kg i.v. bolus, individual animals
[12] = plasma, iv, 5 mg/kg, 5 mg/kg i.v. bolus, MEAN
[13] = plasma, iv, 5 mg/kg, 5 mg/kg i.v. bolus, individual animals
[14] = plasma, iv, 20 mg/kg, 20 mg/kg i.v. bolus, MEAN
[15] = plasma, iv, 20 mg/kg, 20 mg/kg i.v. bolus, individual animals

For Cn1c(COP(=O)(NCCBr)NCCBr)cnc1[N+](=O)[O-] [TH302], the half-life [1] was 7.9 min, the “human equivalent dose of the minimally toxic dose” value ([2]; 25 mg/kg rat dose divided by 6.2) was “about 4 mg/kg” and the minimally toxic dose ([2]; rat) was 25 mg/kg. For the same compound, the “histopathology at the highest dose” value ([2]; rats, 50 mg/kg Q7D×3) was “effects on the bone marrow and the tongue with minor effects on the kidney and the uterus”, the primary toxicities ([2]; rats, 12.5, 25 and 50 mg/kg, 30 minute infusion Q7D×3) was “hematologic in nature and were reversible” and the “body weight during the treatment period” value [3] was “body weight gain”. For the same compound, the “tumor growth delay (to 300 mm^3)” value [3] was 19 days, the “growth inhibition (significance)” value ([3]; P<0.05) was “significant growth inhibition” and the tumor growth inhibition ([3]; forty five days after the first administration) was 66%. For the same compound, the clearance [4, 5] was 78.2 mL/min/kg, the Vd [4, 5] was 2.05 L/kg and the clearance [4, 6] was 102 mL/min/kg. The Vd [4, 6] was 5.09 L/kg, the Vd ([4]; in vivo, iv, 5 mg/kg, 5 mg/kg i.v. bolus, individual animals) was 2.51 L/kg and the clearance [4, 7] was 102 mL/min/kg. For the same compound, the Vd [4, 7] was 2.29 L/kg, the clearance [4, 8] was 98.5 mL/min/kg and the Vd [4, 8] was 2.29 L/kg. The clearance [4, 9] was 98.5 mL/min/kg, the Vd [4, 9] was 1.67 L/kg and the half-life ([4]; in vivo, iv, 1 mg/kg i.v. bolus, MEAN, read-out: T1/2 (converted)) was 122 min. The half-life ([4]; in vivo, iv, 5 mg/kg i.v. bolus, MEAN, read-out: T1/2 (converted)) was 225 min, the half-life ([4]; in vivo, iv, 20 mg/kg i.v. bolus, MEAN, read-out: T1/2 (converted)) was 262 min and the half-life ([4]; in vivo, iv, 50 mg/kg i.v. bolus, MEAN, read-out: T1/2 (converted)) was 79.2 min. It also gave a bioavailability ([4]; in vivo, po, 100 mg/kg p.o., read-out: absolute oral bioavailability) of 77.3%, a half-life ([4]; in vivo, po, after p.o. dosing 100 mg/kg, read-out: terminal plasma t1/2 (converted)) of 95.4 min and an AUC(0-inf) [4, 10] of 221 ng·h/mL. For the same compound, the AUC(0-t) [4, 10] was 217 ng·h/mL, the Cmax [4, 10] was 802 ng/mL and the MRT [4, 10] was 53.4 min. It also gave an AUC(0-inf) [4, 11] of 178 ng·h/mL, an AUC(0-t) [4, 11] of 175 ng·h/mL and a clearance [4, 11] of 93.3 mL/min/kg. The Cmax [4, 11] was 683 ng/mL, the MRT [4, 11] was 57 min and the half-life ([4]; plasma, iv, 1 mg/kg, 1 mg/kg i.v. bolus, individual animals, read-out: T1/2 (converted)) was 105 min. It also gave a Vd [4, 11] of 1.83 L/kg, an AUC(0-inf) [4, 12] of 826 ng·h/mL and an AUC(0-t) [4, 12] of 799 ng·h/mL. It also gave a Cmax [4, 12] of 3820 ng/mL, an MRT [4, 12] of 54 min and an AUC(0-inf) [4, 13] of 732 ng·h/mL. The AUC(0-t) [4, 13] was 730 ng·h/mL, the clearance [4, 13] was 114 mL/min/kg and the Cmax [4, 13] was 3840 ng/mL. The Vd [4, 13] was 7.68 L/kg, the AUC(0-inf) [4, 14] was 3310 ng·h/mL and the AUC(0-t) [4, 14] was 3270 ng·h/mL. It also gave a Cmax [4, 14] of 13500 ng/mL, an MRT [4, 14] of 35.4 min and an AUC(0-inf) [4, 15] of 2920 ng·h/mL. For the same compound, the AUC(0-t) [4, 15] was 2830 ng·h/mL, the clearance [4, 15] was 114 mL/min/kg and the Cmax [4, 15] was 13400 ng/mL. It also gave a Vd [4, 15] of 2.89 L/kg.
